Assay results reported in ChEMBL document CHEMBL3217623, “Tacrine-mefenamic acid hybrids for inhibition of acetylcholinesterase” (Medchemcomm, 2011).
Activity calls are given as the source filed them. No cut-off for these calls is given here.

Legend:
Acetylcholinesterase [1] = target: T1, Acetylcholinesterase (Torpedo californica, UniProt P04058); experiment: Inhibition of Torpedo californica […] AChE using acetylthiocholine/DTNB as substrate preincubated for 10 mins followed by substrate addition measured every 30 secs for 30 mins by Ellmans method; set-up: species or system Tetronarce californica
T1 sequence (P04058 whole entry): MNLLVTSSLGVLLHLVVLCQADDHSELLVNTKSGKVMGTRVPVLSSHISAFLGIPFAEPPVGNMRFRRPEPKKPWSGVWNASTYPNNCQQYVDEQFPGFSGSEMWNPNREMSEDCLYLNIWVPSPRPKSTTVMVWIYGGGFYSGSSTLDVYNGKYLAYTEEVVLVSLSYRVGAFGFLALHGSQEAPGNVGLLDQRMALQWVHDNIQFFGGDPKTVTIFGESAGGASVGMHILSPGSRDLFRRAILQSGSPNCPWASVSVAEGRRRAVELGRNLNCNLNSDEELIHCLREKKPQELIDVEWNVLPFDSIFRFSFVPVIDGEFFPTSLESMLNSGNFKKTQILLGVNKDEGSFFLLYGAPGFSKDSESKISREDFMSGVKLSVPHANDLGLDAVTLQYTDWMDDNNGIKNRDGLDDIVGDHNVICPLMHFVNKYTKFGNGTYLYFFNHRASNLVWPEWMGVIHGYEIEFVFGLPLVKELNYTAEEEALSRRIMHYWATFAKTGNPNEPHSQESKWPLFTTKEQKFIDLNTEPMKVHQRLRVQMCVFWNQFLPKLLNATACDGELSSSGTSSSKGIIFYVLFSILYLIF

Acetylcholinesterase [2] = target: T1, Acetylcholinesterase; experiment: Inhibition of Torpedo californica […] AChE using acetylthiocholine/DTNB as substrate assessed as ROS-induced enzyme inactivation preincubated for 10 mins followed by substrate addition measured every 30 secs for 20 mins in presence of horseradish peroxidase and H2O2; set-up: species or system Tetronarce californica
[3] = target: Acetylcholinesterase (Torpedo californica) (UniProt P04058); experiment: Non-competitive inhibition of Torpedo californica […] AChE using acetylthiocholine as substrate at 0.2 to 5 uM measured for 2 mins by Lineweaver-Burk plot analysis; conditions: Tetronarce californica
Sequence of Acetylcholinesterase (Torpedo californica) (P04058 22-564 limits assumed): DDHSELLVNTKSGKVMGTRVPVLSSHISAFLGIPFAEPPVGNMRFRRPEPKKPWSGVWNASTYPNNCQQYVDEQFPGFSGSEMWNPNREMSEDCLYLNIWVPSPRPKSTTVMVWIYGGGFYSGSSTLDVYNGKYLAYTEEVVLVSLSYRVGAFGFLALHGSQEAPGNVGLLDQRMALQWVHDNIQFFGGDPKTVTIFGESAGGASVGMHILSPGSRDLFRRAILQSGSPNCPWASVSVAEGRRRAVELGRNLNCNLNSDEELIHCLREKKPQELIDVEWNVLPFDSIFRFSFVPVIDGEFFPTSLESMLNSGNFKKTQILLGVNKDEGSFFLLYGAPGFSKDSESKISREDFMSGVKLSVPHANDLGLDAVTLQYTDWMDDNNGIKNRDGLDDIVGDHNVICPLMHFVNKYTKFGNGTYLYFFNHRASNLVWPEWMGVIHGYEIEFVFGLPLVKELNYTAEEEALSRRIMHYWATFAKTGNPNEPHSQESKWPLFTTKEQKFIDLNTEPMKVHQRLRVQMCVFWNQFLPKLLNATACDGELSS

| Structure (SMILES) | IC50 (Acetylcholinesterase [1]) | IC50 (Acetylcholinesterase [2]) | inhibition [3] |
| --- | --- | --- | --- |
| Cc1cccc(Nc2ccccc2C(=O)O)c1C [MEFENAMIC ACID] | > 1250 µM | 6120 nM | – |
| Clc1c2c(nc3ccccc13)CCCC2 | > 25 µM | 83.9 nM | – |
| Cc1cccc(Nc2ccccc2C(=O)NCCCCCCCNc2c3c(nc4cc(Cl)ccc24)CCCC3)c1C | 1.38 µM | 29.8 nM | – |
| Cc1cccc(Nc2ccccc2C(=O)NCCCCCCCCCCCCNc2c3c(nc4ccccc24)CCCC3)c1C | 0.0509 µM | 6.94 nM | – |
| Cc1cccc(Nc2ccccc2C(=O)NCCCCCC(=O)NCCCCNc2c3c(nc4cc(Cl)ccc24)CCCC3)c1C | 0.0374 µM | 0.299 nM | – |
| Cc1cccc(Nc2ccccc2C(=O)NCCCCCC(=O)NCCCCCCCCNc2c3c(nc4ccccc24)CCCC3)c1C | 0.0187 µM | 6.26 nM | – |
| Cc1cccc(Nc2ccccc2C(=O)NCCCC(=O)NCCCCCCNc2c3c(nc4ccccc24)CCCC3)c1C | 0.195 µM | 29.9 nM | – |
| Cc1cccc(Nc2ccccc2C(=O)NCCCC(=O)NCCCCCCCCNc2c3c(nc4cc(Cl)ccc24)CCCC3)c1C | 0.017 µM | 6.59 nM | – |
| Cc1cccc(Nc2ccccc2C(=O)NCCC(=O)NCCCCCCNc2c3c(nc4ccccc24)CCCC3)c1C | 0.985 µM | 40.2 nM | – |
| Cc1cccc(Nc2ccccc2C(=O)NCCCC(=O)NCCCCCCCNc2c3c(nc4cc(Cl)ccc24)CCCC3)c1C | 0.00791 µM | 6.55 nM | – |
| Cc1cccc(Nc2ccccc2C(=O)NCCCCCC(=O)NCCCNc2c3c(nc4ccccc24)CCCC3)c1C | 0.811 µM | 20.2 nM | – |
| Cc1cccc(Nc2ccccc2C(=O)NCCC(=O)NCCCNc2c3c(nc4cc(Cl)ccc24)CCCC3)c1C | 0.0203 µM | 21.3 nM | – |
| Cc1cccc(Nc2ccccc2C(=O)NCCCCCCCCNc2c3c(nc4ccccc24)CCCC3)c1C | 0.0755 µM | 0.045 nM | – |
| Cc1cccc(Nc2ccccc2C(=O)NCC(=O)NCCCCCCCCNc2c3c(nc4cc(Cl)ccc24)CCCC3)c1C | 0.0398 µM | 18.1 nM | – |
| Cc1cccc(Nc2ccccc2C(=O)NCCCC(=O)NCCCCCCNc2c3c(nc4cc(Cl)ccc24)CCCC3)c1C | 0.0417 µM | 15.6 nM | – |
| Cc1cccc(Nc2ccccc2C(=O)NCCCC(=O)NCCCNc2c3c(nc4cc(Cl)ccc24)CCCC3)c1C | 0.00713 µM | 1.03 nM | – |
| Cc1cccc(Nc2ccccc2C(=O)NCCCCCC(=O)NCCCNc2c3c(nc4cc(Cl)ccc24)CCCC3)c1C | 0.00165 µM | 7.85 nM | – |
| Cc1cccc(Nc2ccccc2C(=O)NCCCCCCNc2c3c(nc4cc(Cl)ccc24)CCCC3)c1C | 7.23 µM | 1.02 nM | – |
| Cc1cccc(Nc2ccccc2C(=O)NCCC(=O)NCCCNc2c3c(nc4ccccc24)CCCC3)c1C | 3.8 µM | 7.92 nM | – |

| Structure (SMILES) | IC50 (Acetylcholinesterase [1]) | IC50 (Acetylcholinesterase [2]) | inhibition [3] |
| --- | --- | --- | --- |
| Cc1cccc(Nc2ccccc2C(=O)NCCC(=O)NCCCCCCCCNc2c3c(nc4cc(Cl)ccc24)CCCC3)c1C | 0.0183 µM | 4.97 nM | – |
| Cc1cccc(Nc2ccccc2C(=O)NCCCCCCCCCCCCNc2c3c(nc4cc(Cl)ccc24)CCCC3)c1C | 2.36 µM | 16.2 nM | – |
| Cc1cccc(Nc2ccccc2C(=O)NCCCCCC(=O)NCCCCCCNc2c3c(nc4cc(Cl)ccc24)CCCC3)c1C | 0.00294 µM | 7.39 nM | – |
| Cc1cccc(Nc2ccccc2C(=O)NCCCCCC(=O)NCCCCCCCCNc2c3c(nc4cc(Cl)ccc24)CCCC3)c1C | 0.0801 µM | 8.67 nM | – |
| Cc1cccc(Nc2ccccc2C(=O)NCCC(=O)NCCCCCCNc2c3c(nc4cc(Cl)ccc24)CCCC3)c1C | 0.00114 µM | 2.96 nM | – |
| Cc1cccc(Nc2ccccc2C(=O)NCCC(=O)NCCCCCCCCNc2c3c(nc4ccccc24)CCCC3)c1C | 0.00858 µM | 4.07 nM | – |
| Cc1cccc(Nc2ccccc2C(=O)NCCCCCCCNc2c3c(nc4ccccc24)CCCC3)c1C | 0.00139 µM | 25.2 nM | – |
| Cc1cccc(Nc2ccccc2C(=O)NCC(=O)NCCCCCCCCNc2c3c(nc4ccccc24)CCCC3)c1C | 0.0033 µM | 17.2 nM | – |
| Cc1cccc(Nc2ccccc2C(=O)NCCC(=O)NCCCCNc2c3c(nc4cc(Cl)ccc24)CCCC3)c1C | 2.47 µM | 33 nM | – |
| Cc1cccc(Nc2ccccc2C(=O)NCC(=O)NCCCCCCNc2c3c(nc4cc(Cl)ccc24)CCCC3)c1C | 0.00765 µM | 3.46 nM | – |
| Cc1cccc(Nc2ccccc2C(=O)NCC(=O)NCCCNc2c3c(nc4ccccc24)CCCC3)c1C | 0.0873 µM | 47.5 nM | – |
| Cc1cccc(Nc2ccccc2C(=O)NCCCC(=O)NCCCNc2c3c(nc4ccccc24)CCCC3)c1C | 3.73 µM | 23 nM | – |
| Cc1cccc(Nc2ccccc2C(=O)NCC(=O)NCCCCNc2c3c(nc4cc(Cl)ccc24)CCCC3)c1C | 0.156 µM | 89.4 nM | – |
| Cc1cccc(Nc2ccccc2C(=O)NCC(=O)NCCCCNc2c3c(nc4ccccc24)CCCC3)c1C | 0.262 µM | 53.6 nM | – |
| Cc1cccc(Nc2ccccc2C(=O)NCCCCCCNc2c3c(nc4ccccc24)CCCC3)c1C | 0.00224 µM | 0.129 nM | – |
| Cc1cccc(Nc2ccccc2C(=O)NCC(=O)NCCCCCCNc2c3c(nc4ccccc24)CCCC3)c1C | 0.0183 µM | 54.8 nM | – |
| Cc1cccc(Nc2ccccc2C(=O)NCCCCCC(=O)NCCCCNc2c3c(nc4ccccc24)CCCC3)c1C | 1.86 µM | 34 nM | – |
| Cc1cccc(Nc2ccccc2C(=O)NCCCCCCCCCCNc2c3c(nc4cc(Cl)ccc24)CCCC3)c1C | 0.000776 µM | 1.85 nM | – |
| Cc1cccc(Nc2ccccc2C(=O)NCCCC(=O)NCCCCNc2c3c(nc4ccccc24)CCCC3)c1C | 0.0897 µM | 14.6 nM | – |

| Structure (SMILES) | IC50 (Acetylcholinesterase [1]) | IC50 (Acetylcholinesterase [2]) | inhibition [3] |
| --- | --- | --- | --- |
| Cc1cccc(Nc2ccccc2C(=O)NCCCCCC(=O)NCCCCCCNc2c3c(nc4ccccc24)CCCC3)c1C | 1.44 µM | 34 nM | – |
| Cc1cccc(Nc2ccccc2C(=O)NCC(=O)NCCCCCCCNc2c3c(nc4ccccc24)CCCC3)c1C | 0.00555 µM | 15.3 nM | – |
| Cc1cccc(Nc2ccccc2C(=O)NCCCCCC(=O)NCCCCCCCNc2c3c(nc4cc(Cl)ccc24)CCCC3)c1C | 0.0111 µM | 13.4 nM | – |
| CN(C)C(=O)Oc1ccc[n+](C)c1 [PYRIDOSTIGMINE] | 0.082 µM | – | – |
| Cc1cccc(Nc2ccccc2C(=O)NCCCCCC(=O)NCCCCCCCNc2c3c(nc4ccccc24)CCCC3)c1C | 0.0036 µM | 3.66 nM | – |
| Cc1cccc(Nc2ccccc2C(=O)NCCCCCCCCCCNc2c3c(nc4ccccc24)CCCC3)c1C | 0.385 µM | 0.908 nM | Active |
| Cc1cccc(Nc2ccccc2C(=O)NCCCCCCCCCNc2c3c(nc4cc(Cl)ccc24)CCCC3)c1C | 0.00694 µM | 6.72 nM | – |
| Cc1cccc(Nc2ccccc2C(=O)NCCC(=O)NCCCCCCCNc2c3c(nc4cc(Cl)ccc24)CCCC3)c1C | 0.00667 µM | 10 nM | – |
| Cc1cccc(Nc2ccccc2C(=O)NCCC(=O)NCCCCCCCNc2c3c(nc4ccccc24)CCCC3)c1C | 0.0139 µM | 1.02 nM | – |
| Cc1cccc(Nc2ccccc2C(=O)NCCCC(=O)NCCCCCCCCNc2c3c(nc4ccccc24)CCCC3)c1C | 0.0174 µM | 14.6 nM | – |
| Cc1cccc(Nc2ccccc2C(=O)NCCCC(=O)NCCCCCCCNc2c3c(nc4ccccc24)CCCC3)c1C | 0.00809 µM | 44.6 nM | – |
| Cc1cccc(Nc2ccccc2C(=O)NCC(=O)NCCCCCCCNc2c3c(nc4cc(Cl)ccc24)CCCC3)c1C | 0.000418 µM | 0.009 nM | – |
| Cc1cccc(Nc2ccccc2C(=O)NCCCCCCCCCNc2c3c(nc4ccccc24)CCCC3)c1C | 0.00154 µM | 15.1 nM | – |
| CN(C)C(=O)Oc1cccc([N+](C)(C)C)c1 [NEOSTIGMINE] | 0.0046 µM | – | – |
| Cc1cccc(Nc2ccccc2C(=O)NCCCCCCCCNc2c3c(nc4cc(Cl)ccc24)CCCC3)c1C | 0.000495 µM | 1.49 nM | – |
| Cc1cccc(Nc2ccccc2C(=O)NCC(=O)NCCCNc2c3c(nc4cc(Cl)ccc24)CCCC3)c1C | 0.0281 µM | 3.1 nM | – |
| Clc1ccc2c(Cl)c3c(nc2c1)CCCC3 | > 50 µM | – | – |
| Cc1cccc(Nc2ccccc2C(=O)NCCC(=O)NCCCCNc2c3c(nc4ccccc24)CCCC3)c1C | 0.426 µM | 2.43 nM | – |
| Cc1cccc(Nc2ccccc2C(=O)NCCCC(=O)NCCCCNc2c3c(nc4cc(Cl)ccc24)CCCC3)c1C | 0.0136 µM | 12.4 nM | – |
